Assay results taken from PubChem BioAssay (NCI).
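Tested at 5 concentrations; 48 h exposure; 96-well plates; endpoints linearly interpolated, else capped at highest concentration. At the GI50, growth is halved. TGI: concentration producing complete growth inhibition.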

Legend:
Test in all cases: NCI anticancer screen, dose series, 48 h
SK-MEL-28 melanoma = test system: SK-MEL-28 melanoma
SK-OV-3 ovarian = test system: SK-OV-3 ovarian
CAKI-1 renal = test system: CAKI-1 renal
NCI/ADR-RES ovarian = test system: NCI/ADR-RES ovarian
SW-620 colon = test system: SW-620 colon
IGROV1 ovarian = test system: IGROV1 ovarian
UACC-62 melanoma = test system: UACC-62 melanoma
U251 CNS = test system: U251 CNS
UACC-257 melanoma = test system: UACC-257 melanoma
MDA-MB-231 breast = test system: MDA-MB-231 breast
OVCAR-8 ovarian = test system: OVCAR-8 ovarian
SNB-19 CNS = test system: SNB-19 CNS
MDA-MB-435 = test system: MDA-MB-435
KM12 colon = test system: KM12 colon
SF-295 CNS = test system: SF-295 CNS
HCT-15 colon = test system: HCT-15 colon
NCI-H226 lung = test system: NCI-H226 lung
HL-60(TB) leukemia = test system: HL-60(TB) leukemia
OVCAR-3 ovarian = test system: OVCAR-3 ovarian
OVCAR-4 ovarian = test system: OVCAR-4 ovarian
HS 578T breast = test system: HS 578T breast
PC-3 prostate = test system: PC-3 prostate
SF-539 CNS = test system: SF-539 CNS
TK-10 renal = test system: TK-10 renal
MOLT-4 leukemia = test system: MOLT-4 leukemia
BT-549 breast = test system: BT-549 breast
NCI-H23 lung = test system: NCI-H23 lung
ACHN renal = test system: ACHN renal
SR leukemia = test system: SR leukemia
M14 melanoma = test system: M14 melanoma
NCI-H460 lung = test system: NCI-H460 lung
LOX IMVI melanoma = test system: LOX IMVI melanoma
HT29 colon = test system: HT29 colon
RXF 393 renal = test system: RXF 393 renal
UO-31 renal = test system: UO-31 renal
A498 renal = test system: A498 renal
CCRF-CEM leukemia = test system: CCRF-CEM leukemia
SK-MEL-5 melanoma = test system: SK-MEL-5 melanoma
DU-145 prostate = test system: DU-145 prostate
NCI-H522 lung = test system: NCI-H522 lung
MALME-3M melanoma = test system: MALME-3M melanoma
MCF7 breast = test system: MCF7 breast
T-47D breast = test system: T-47D breast
HCC-2998 colon = test system: HCC-2998 colon
HCT-116 colon = test system: HCT-116 colon
HOP-62 NSCLC = test system: HOP-62 NSCLC
SF-268 CNS = test system: SF-268 CNS
HOP-92 NSCLC = test system: HOP-92 NSCLC
SN12C renal = test system: SN12C renal
COLO 205 colon = test system: COLO 205 colon
OVCAR-5 ovarian = test system: OVCAR-5 ovarian
A549 NSCLC = test system: A549 NSCLC
SNB-75 CNS = test system: SNB-75 CNS
RPMI-8226 leukemia = test system: RPMI-8226 leukemia
SK-MEL-2 melanoma = test system: SK-MEL-2 melanoma
K-562 leukemia = test system: K-562 leukemia
786-0 renal = test system: 786-0 renal

## CN1CCN(c2ccc(Nc3nc(N)c(C(=O)c4ccc5c(c4)OCCO5)s3)cc2)CC1
SK-MEL-28 melanoma
  GI50: 4.6 µM
  TGI: 10.5 µM
SK-OV-3 ovarian
  GI50: 4.36 µM
  TGI: 10.6 µM
CAKI-1 renal
  GI50: 1.18 µM
  TGI: 7 µM
NCI/ADR-RES ovarian
  GI50: 7.54 µM
  TGI: > 25 µM
SW-620 colon
  GI50: 3.63 µM
  TGI: > 17.7 µM
IGROV1 ovarian
  GI50: 2.27 µM
  TGI: 9.27 µM
UACC-62 melanoma
  GI50: 4.19 µM
  TGI: 9.35 µM
U251 CNS
  GI50: 2.83 µM
  TGI: 11 µM
UACC-257 melanoma
  GI50: 3.97 µM
  TGI: 12.6 µM
MDA-MB-231 breast
  GI50: 3.22 µM
  TGI: 9.94 µM
OVCAR-8 ovarian
  GI50: 5.94 µM
  TGI: 16.7 µM
SNB-19 CNS
  GI50: 4.14 µM
  TGI: 24.3 µM
MDA-MB-435
  GI50: 3.44 µM
  TGI: 12.2 µM
KM12 colon
  GI50: 4.06 µM
  TGI: 16.1 µM
SF-295 CNS
  GI50: 3.65 µM
  TGI: 10 µM
HCT-15 colon
  GI50: 4.08 µM
  TGI: > 25 µM
NCI-H226 lung
  GI50: 2.71 µM
  TGI: 11.8 µM
HL-60(TB) leukemia
  GI50: 4.62 µM
  TGI: 11.6 µM
OVCAR-3 ovarian
  GI50: 4.05 µM
  TGI: 9.69 µM
OVCAR-4 ovarian
  GI50: 4.02 µM
  TGI: 10.5 µM
HS 578T breast
  GI50: 2.32 µM
  TGI: 12.2 µM
PC-3 prostate
  GI50: 1.77 µM
  TGI: 8.47 µM
SF-539 CNS
  GI50: 4.25 µM
  TGI: 8.33 µM
TK-10 renal
  GI50: 3.14 µM
  TGI: 10.1 µM
MOLT-4 leukemia
  GI50: 1.89 µM
  TGI: 10 µM
BT-549 breast
  GI50: 4.71 µM
  TGI: 9.46 µM
NCI-H23 lung
  GI50: 3.69 µM
  TGI: 11.3 µM
ACHN renal
  GI50: 1.85 µM
  TGI: 6.57 µM
SR leukemia
  GI50: 2.02 µM
  TGI: 12.7 µM
M14 melanoma
  GI50: 3.99 µM
  TGI: > 18.1 µM
NCI-H460 lung
  GI50: 2.85 µM
  TGI: 9.75 µM
LOX IMVI melanoma
  GI50: 3.2 µM
  TGI: 7.21 µM
HT29 colon
  GI50: 2.68 µM
  TGI: 11.7 µM
RXF 393 renal
  GI50: 1.71 µM
  TGI: 5.71 µM
UO-31 renal
  GI50: 2.6 µM
  TGI: 8.02 µM
A498 renal
  GI50: 2.3 µM
  TGI: 6.22 µM
CCRF-CEM leukemia
  GI50: 4.66 µM
  TGI: 23.9 µM
SK-MEL-5 melanoma
  GI50: 3.52 µM
  TGI: 8.88 µM
DU-145 prostate
  GI50: 4.34 µM
  TGI: 16.5 µM
NCI-H522 lung
  GI50: 4.32 µM
  TGI: 9.84 µM
MALME-3M melanoma
  GI50: 2.72 µM
  TGI: 8.34 µM
MCF7 breast
  GI50: 2.85 µM
  TGI: 7.73 µM
T-47D breast
  GI50: 3.69 µM
  TGI: 9.7 µM
HCC-2998 colon
  GI50: 9.67 µM
  TGI: > 19.6 µM
HCT-116 colon
  GI50: 2.27 µM
  TGI: > 15.5 µM
HOP-62 NSCLC
  GI50: 5.18 µM
  TGI: 13.2 µM
SF-268 CNS
  GI50: 3.84 µM
  TGI: 10.5 µM
HOP-92 NSCLC
  GI50: 0.204 µM
  TGI: 3.5 µM
SN12C renal
  GI50: 3.33 µM
  TGI: > 25 µM
COLO 205 colon
  GI50: 2.27 µM
  TGI: 7.35 µM
OVCAR-5 ovarian
  GI50: 2.86 µM
  TGI: 8.48 µM
A549 NSCLC
  GI50: 4.3 µM
  TGI: 15.7 µM
SNB-75 CNS
  GI50: 2.28 µM
  TGI: 6 µM
RPMI-8226 leukemia
  GI50: 3.85 µM
  TGI: 11.6 µM
SK-MEL-2 melanoma
  GI50: 4.77 µM
  TGI: 15.2 µM
K-562 leukemia
  GI50: 2.43 µM
  TGI: 18.3 µM
786-0 renal
  GI50: 3.44 µM
  TGI: 8.23 µM
